# Experimental data reported in US11952365B2, “Anti-viral compounds” (Aligos Therapeutics, Inc., priority 2020, dated 2024).
# Like-named read-outs stand apart in the source and are kept apart here.
# Legend:
# HRV3C = HRV3C (Human rhinovirus 14, UniProt P03303); assay: HRV3C protease assay (duplex, SAMDI-MS); format: biochemical, HRV; conditions: 30 mins preincubation
# Method: Protease assays were performed in 384-well low volume polypropylene microtiter plates at ambient temperature. For the duplex assay, 3CLpro and HRV3C was added using a Multidrop Combi (Thermo Scientific; Waltham, MA) and preincubated for 30 mins with small molecules. The reactions were initiated by the addition of the two peptide substrates. The reactions were incubated for 30 mins and quenched by the addition of 0.5% formic acid (final) with subsequent neutralization using 1% sodium bicarbonate (final). Internal standard peptides were added in 20 mM Hepes pH 8.0 for quantitation of the protease products. For SAMDI-MS analysis, 2 μL of each reaction mixture was transferred using a 384-channel automated liquid handler to SAMDI biochip arrays functionalized with a neutravidin-presenting self-assembled monolayer. The SAMDI arrays were incubated for 1 h in a humidified chamber to allow the specific immobilization of the biotinylated peptide substrates, cleaved products and internal standards. The samples were purified by washing the SAMDI arrays with deionized ultrafiltered water and dried with compressed air. A matrix comprising alpha-cyano cinnamic acid in 80% acetonitrile:20% aqueous ammonium citrate was applied in an automated format by dispensing 50 nL to each spot in the array. SAMDI-MS was performed using reflector-positive mode on an AB Sciex TOF-TOF 5800 System (AB Sciex, Framingham, MA) with 400 shots/spot analyzed in a random raster sampling. For data analysis, area under the curves (peaks) (AUCs) for the product and internal standard were calculated using the TOF/TOF Series Explorer (AB Sciex), and the amount of product formed was calculated using the equation (AUC product/AUC internal standard). The amount of product generated was calculated using the ratio of product area under the curve (AUC) divided by the AUC of the internal standard. Negative controls were pre-quenched with 0.5% formic acid final. Assay robustness was determined by Z-Factor. The IC50s were determined by fitting the curves using a four-parameter equation in Graphpad Prism 8.
# [1] = test system: human beta-coronavirus OC43; assay: microbe, parasite or virus in culture; format: cell-based; conditions: Betacoronavirus 1, OC43, HeLa, 144 h
# [2] = Cytotoxicity plates without OC43 virus (cell-titer-glo); format: cell-based, human; conditions: human; HeLa cells without OC43 virus, class symbols
# Method: The human beta-coronavirus OC43 was purchased from ATCC (Manassas, VA) and propagated using HCT-8 human colorectal epithelial cells (ATCC). HeLa human cervical epithelial cells (ATCC) were used as susceptible host cell lines and were cultured using EMEM media, supplemented with 10% fetal bovine serum (FBS), 1% (v/v) penicillin/streptomycin (P/S), 1% (v/v) HEPES and 1% (v/v) Cellgro Glutagro™ supplement (all Corning, Manassas, VA) at 37° C. For the OC43 antiviral assay, 1.5×10^4 HeLa cells per well were plated in 100 μL complete media in white 96-well plates with clear bottoms at 37° C. for up to 24 h to facilitate attachment and allow cells to recover from seeding stresses. Next day, the cell culture medium was removed. Serially diluted compounds in 100 μL assay media (EMEM, 2% FBS, 1% P/S, 1% Cellgro Glutagro™ supplement, 1% HEPES) were added to the cells and incubated for 4H at 37° C. in a humidified 5% CO2 incubator. 100 μL of OC43 virus stock was diluted to a concentration known to produce optimal cytopathic effect, inducing 80-90% reduction in cell viability. 96-well plates were incubated for 6 (HeLa) days at 33° C.; each plate contains uninfected control wells as well as virus-infected wells that were not treated with compound. Cytotoxicity plates without the addition of OC43 virus were carried out in parallel. At the end of the incubation period, 100 μL cell culture supernatant was replaced with 100 μL cell-titer-glo reagent (Promega, Madison, WI) and incubated for at least 10 min at rt prior to measuring luminescence. Luminescence was measured on a Perkin Elmer (Waltham, MA) Envision plate reader. Antiviral % inhibition was calculated as follows: [(Compound treated cells infected sample)−(no compound infected control)]/[(Uninfected control)−(no compound infected control)]*100; Using GraphPad (San Diego, CA) prism software version 8.3.1, the antiviral dose-response plot was generated as a sigmoidal fit, log(inhibitor) vs response-variable slope (four parameters) model and the EC50 was calculated which is the predicted compound concentration corresponding to a 50% inhibition of the viral cytopathic effect.
# [3] = test system: SARS-CoV-2-GHB-03021/2020; assay: microbe, parasite or virus in culture; format: cell-based; conditions: Severe acute respiratory syndrome coronavirus 2, Vero C1008, 96 h; read-out: VeroE6 + CP (EC50)
# in vitro = conditions: African green monkey, VeroE6 + CP (CC50), Vero E6-eGFP cells with CP-100356, absence of virus, MTS
# 3CLpro = 3CLpro (Severe acute respiratory syndrome coronavirus 2, UniProt P0DTD1); assay: SARS-CoV-2 3CLpro protease assay (duplex, SAMDI-MS); format: biochemical; design: For the duplex assay, 3CLpro and HRV3C was added; conditions: 3CLpro, 30 mins preincubation, read-out: SARS-Cov-2 IC50
# human cathepsin L = molecular target: T1, human cathepsin L (Homo sapiens, UniProt P07711); assay: cathepsin L assay; format: biochemical; conditions: 10 pM human cathepsin L, Z-FR-AMC 2 μM, class symbols
# T1 construct: purchased R&D Systems
# Method: For the cathepsin L assay, 10 pM of human cathepsin L (R&D Systems; Minneapolis, MN) was preincubated for 30 mins with test compounds. Reactions were initiated by the addition of a peptide substrate Z-FR-AMC (final concentration 2 μM, Anaspec; Fremont, CA). Fluorescence was measured at 2-minute intervals for 30 mins using a 355/460 excitation/emission filter module on an Envision plate reader (Perkin Elmer; Waltham, MA). The IC50 values were calculated for each assay by fitting the curves using a four-parameter equation in GraphPad Prism.
# [4] = OC43 in HeLa cells, 6 days at 33° C., class symbols, read-out: EC50
# [5] = HRV3C, class symbols, read-out: HRV IC50
SMILES,"IC50 (HRV3C; HRV IC50, HRV3C, class symbols) [µM]","EC50 [1, 4] [µM]",CC50 at 6 days [2] [µM],EC50 [3] [µM],CC50 (in vitro; numeric bounds) [µM],IC50 (3CLpro; class symbols) [µM],IC50 (HRV3C; [5]) [µM],IC50 (human cathepsin L) [µM],CC50 (in vitro; class symbols) [µM],"IC50 (HRV3C; HRV IC50, HRV3C, bound) [µM]",EC50 [1] [µM],IC50 (3CLpro; bound) [µM]
"O=C(NCc1ccccc1)C(=O)C(C[C@@H]1CCNC1=O)NC(=O)[C@@H]1CCCCN1C(=O)c1cc2ccccc2[nH]1 (stereo partly drawn) [Compound 1, (2S)—N-(4-(benzylamino)-3,4-dioxo-1-((S)-2-oxopyrrolidin-3-yl)butan-2-yl)-1-(1H-indole-2-carbonyl)piperidine-2-carboxamide]",20 to 100,1 to 10,> 10,> 100,> 100,2 to 20,–,–,–,–,–,–
"O=C(NCc1ccccc1)C(=O)C(C[C@@H]1CCNC1=O)NC(=O)[C@@H]1[C@H]2CCC[C@H]2CN1C(=O)c1cc2ccccc2[nH]1 (stereo partly drawn) [Compound 2, (1S,3aR,6aS)—N-(4-(benzylamino)-3,4-dioxo-1-((S)-2-oxopyrrolidin-3-yl)butan-2-yl)-2-(1H-indole-2-carbonyl)-octahydrocyclopenta[c]pyrrole-1-carboxamide]",–,0.1 to 1,> 10,1 to 10,–,0.2 to 2,2 to 20,1 to 10,> 10,–,–,–
"CC1(C)[C@@H]2[C@@H](C(=O)NC(C[C@@H]3CCNC3=O)C(=O)C(=O)NCc3ccccc3)N(C(=O)c3cc4ccccc4[nH]3)C[C@@H]21 (stereo partly drawn) [Compound 4, N-benzyl-3-[[(1R,2S,5S)-3-(1H-indole-2-carbonyl)-6,6-dimethyl-3-azabicyclo[3.1.0]hexan-2-yl]formamido]-2-oxo-4-[(3S)-2-oxopyrrolidin-3-yl]butanamide]",–,1 to 10,> 10,1 to 10,> 100,0.2 to 2,2 to 20,0.1 to 1,–,–,–,–
O=C(NCc1ccccc1)C(=O)C(C[C@@H]1CCNC1=O)NC(=O)[C@@H]1C[C@@H](Oc2ccccc2)CN1C(=O)c1cc2ccccc2[nH]1 (some centres unmarked) [Compound 5],0.2 to 2,1 to 10,> 10,10 to 100,> 100,20 to 100,–,–,–,–,–,–
O=C(NCc1ccccc1)C(=O)C(C[C@@H]1CCNC1=O)NC(=O)[C@@H]1C[C@@H](OCc2ccccc2)CN1C(=O)c1cc2ccccc2[nH]1 (some centres unmarked) [Compound 6],0.2 to 2,1 to 10,> 10,> 100,> 100,2 to 20,–,–,–,–,–,–
O=C(NCc1ccccc1)C(=O)C(C[C@@H]1CCNC1=O)NC(=O)[C@@H]1[C@H]2CC[C@H](C2)N1C(=O)c1cc2ccccc2[nH]1 (some centres unmarked) [Compound 8],–,1 to 10,> 10,10 to 100,> 100,0.2 to 2,2 to 20,0.1 to 1,–,–,–,–
O=C(NCc1ccccc1)C(=O)C(C[C@@H]1CCNC1=O)NC(=O)[C@@H]1CC2(CC2)CN1C(=O)c1cc2ccccc2[nH]1 (some centres unmarked) [Compound 9],–,0.1 to 1,> 10,1 to 10,> 100,0.02 to 0.2,2 to 20,0.1 to 1,–,–,–,–
CC(C)(C)O[C@@H]1C[C@@H](C(=O)NC(C[C@@H]2CCNC2=O)C(=O)C(=O)NCc2ccccc2)N(C(=O)c2cc3ccccc3[nH]2)C1 (some centres unmarked) [Compound 10],0.2 to 2,1 to 10,> 10,> 100,> 100,2 to 20,–,–,–,–,–,–
CC1(C)C[C@@H](C(=O)NC(C[C@@H]2CCNC2=O)C(=O)C(=O)NCc2ccccc2)N(C(=O)c2cc3ccccc3[nH]2)C1 (some centres unmarked) [Compound 11],–,1 to 10,> 10,10 to 100,> 100,0.2 to 2,2 to 20,< 0.1,–,–,–,–
CO[C@@H]1C[C@@H](C(=O)NC(C[C@@H]2CCNC2=O)C(=O)C(=O)NCc2ccccc2)N(C(=O)c2cc3ccccc3[nH]2)C1 (some centres unmarked) [Compound 12],20 to 100,10 to 100,> 10,> 100,> 100,2 to 20,–,–,–,–,–,–
"O=C[C@H](C[C@@H]1CCNC1=O)NC(=O)[C@@H]1[C@H]2CCC[C@H]2CN1C(=O)c1cc2ccccc2[nH]1 [Compound 13, (1S,3aR,6aS)-2-(1H-indole-2-carbonyl)-N-[(2S)-1-oxo-3-[(3S)-2-oxopyrrolidin-3-yl]propan-2-yl]-hexahydro-1H-cyclopenta[c]pyrrole-1-carboxamide]",–,1 to 10,> 10,1 to 10,> 100,< 0.02,0.2 to 2,1 to 10,–,–,–,–
"COc1cccc2[nH]c(C(=O)N3C[C@@H]4CCC[C@@H]4[C@H]3C(=O)N[C@H](C=O)C[C@@H]3CCNC3=O)cc12 [Compound 14A, (1S,3aR,6aS)-2-(4-methoxy-1H-indole-2-carbonyl)-N-[(2S)-1-oxo-3-[(3S)-2-oxopyrrolidin-3-yl]propan-2-yl]-hexahydro-1H-cyclopenta[c]pyrrole-1-carboxamide]",–,1 to 10,> 10,10 to 100,> 100,0.02 to 0.2,0.2 to 2,≥ 10,–,–,–,–
"COc1cccc2[nH]c(C(=O)N3C[C@@H]4CCC[C@@H]4[C@H]3C(=O)N[C@@H](C[C@@H]3CCNC3=O)C(=O)c3cnc[nH]3)cc12 [Compound 74, (1S,3aR,6aS)—N-[(2S)-1-(3H-imidazol-4-yl)-1-oxo-3-[(3S)-2-oxopyrrolidin-3-yl]propan-2-yl]-2-(4-methoxy-1H-indole-2-carbonyl)-hexahydro-1H-cyclopenta[c]pyrrole-1-carboxamide]",–,–,> 10,10 to 100,–,–,–,≥ 10,> 10,> 10,> 10,> 10
